SMILES strings stand for the structures. “And” between values parts separate entries of the source, which are not always exact repeats. Equal entries are not always repeated. Where two headings read alike, the source gives them in different places.

This is an account of results in patent US9085602B1, “Facial amphiphiles and methods of use” (The Scripps Research Institute, priority 2008, dated 2015).

A short description of series [1]: Critical micelle concentration (CMC) by ANS fluorescence dye binding. It counts as physicochemical. The following applies: in water at 25° C. The procedure: See De Vendittis et al., Anal. Biochem. 1981, 115, 278-86. The molecule ANS has a weak fluorescence in detergent concentrations below CMC, but becomes highly fluorescent when incorporated into the hydrophobic micellar environment. […] The emission fluorescence intensities at 465 nm were recorded (λex=405 nm) on a DXT880 multiplate spectrofluorimeter (Beckman Coulter). The CMC is defined as the breakpoint in the fluorescence (FIG. 4).
See also De Vendittis et al., Anal. Biochem. 1981, 115, 278-86.

Series [2] can be described thus: Hydrodynamic radius of detergent micelles (DynaPro/Titan instrument). It counts as physicochemical. The settings on record: measured at a concentration of 0.03% in water.
Another series concerns the target T1, bacteriorhodopsin (BR) (Halobacterium salinarum, UniProt P02945).
T1 construct: BR was isolated from purple membrane of Halobacterium halobium (strain S9); endogenous in cells; host or cells: Halobacterium halobium strain S9, purple membrane
T1 sequence (P02945 14-262): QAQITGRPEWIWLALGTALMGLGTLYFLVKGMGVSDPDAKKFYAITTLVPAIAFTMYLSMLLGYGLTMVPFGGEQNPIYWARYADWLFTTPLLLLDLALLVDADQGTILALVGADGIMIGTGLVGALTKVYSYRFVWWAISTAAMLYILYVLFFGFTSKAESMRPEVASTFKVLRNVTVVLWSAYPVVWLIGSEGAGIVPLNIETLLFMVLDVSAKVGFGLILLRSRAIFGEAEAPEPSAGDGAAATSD
Briefly: Stabilization of bacteriorhodopsin followed by UV-Vis absorption. Further details: species or system Halobacterium halobium. The settings on record: for stability of BR stored in the detergent: pH 5.6, RT, A1 for more than 5 months. The text has this:
BR has a characteristic adsorption at visible wavelength (λmax: ˜550 nm in detergents) due to the bound retinal ligand in the interior of the transmembrane region, serving as an excellent system for the testing of designed amphiphiles.
BR was isolated from purple membrane of Halobacterium halobium (strain S9) and purified in 1.2% β-octyl-glycoside (OG) as reported in literature (Landau, E. M.; Rosenbusch, J. P. Proc. Natl. Acad. Sci. USA 1996, 93, 14532-5). […] After several dilution-concentration cycles, the final OG concentration was <1% of its CMC (0.53%). […] The UV-Vis absorption spectra of BR samples were recorded on a DXT880 multiplate spectrofluorimeter (Beckman Coulter).

Another series addresses T2, cytochrome c oxidase ba3 (Thermus thermophilus, UniProt P82543+Q5SJ79+Q5SJ80).
T2 sequence (Q5SJ79 1-562): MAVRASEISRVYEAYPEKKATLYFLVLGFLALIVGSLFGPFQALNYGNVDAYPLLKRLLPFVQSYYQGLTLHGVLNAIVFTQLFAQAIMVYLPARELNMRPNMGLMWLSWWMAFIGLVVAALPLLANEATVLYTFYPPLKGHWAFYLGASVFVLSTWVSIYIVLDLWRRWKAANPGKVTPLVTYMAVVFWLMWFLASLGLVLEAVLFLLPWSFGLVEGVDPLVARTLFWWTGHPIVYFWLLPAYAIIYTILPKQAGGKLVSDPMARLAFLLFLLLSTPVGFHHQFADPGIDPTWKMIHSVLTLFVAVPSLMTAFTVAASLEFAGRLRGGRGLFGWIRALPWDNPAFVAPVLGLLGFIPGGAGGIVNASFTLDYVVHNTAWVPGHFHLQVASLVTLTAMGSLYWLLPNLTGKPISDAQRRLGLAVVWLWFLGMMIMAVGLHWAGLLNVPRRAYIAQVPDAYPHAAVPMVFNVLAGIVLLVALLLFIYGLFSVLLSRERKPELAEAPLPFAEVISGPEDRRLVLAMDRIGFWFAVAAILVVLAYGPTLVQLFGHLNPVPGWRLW
T2 sequence (Q5SJ80 1-168): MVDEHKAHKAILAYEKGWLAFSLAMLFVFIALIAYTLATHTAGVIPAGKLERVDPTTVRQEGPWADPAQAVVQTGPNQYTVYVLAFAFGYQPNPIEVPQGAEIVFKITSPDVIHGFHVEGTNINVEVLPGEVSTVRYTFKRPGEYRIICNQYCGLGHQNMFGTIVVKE
T2 sequence (P82543 1-34): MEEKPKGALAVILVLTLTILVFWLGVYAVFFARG
Put plainly: Crystallization of cytochrome c oxidase ba3 by detergent exchange from β-DDM. The settings on record: pure detergent. The procedure: The facial amphiphiles were evaluated in the crystallization of cytochrome c oxidase ba3 by detergent exchange from β-DDM. Several new crystal forms were obtained depending on which detergent was used, albeit in less than optimal diffraction quality (>6 Å). […] Crystals of human connexin 26 have also been obtained using the purely facial amphiphiles described herein.

For series [3] the following is noted: known detergents, comparison values; cited from earlier work.
Series [4] concerns the target T3, MsbA (Salmonella typhimurium, UniProt P63359). Put plainly: Small-angle x-ray scattering of MsbA in detergent. The settings on record: separation of PDC signal from empty micelles. The text has this: The facial amphiphiles self-assemble to smaller micelles and form smaller protein-detergent complexes (PDCs) than the conventional detergents. Because of these unique properties, facial amphiphiles can be used for SAX (small-angle x-ray scattering) studies of integral membrane proteins. A major challenge for applying SAXS to membrane protein structural analysis is the need to separate the scattering signal of the PDC from that of the empty micelles. With conventional head-to-tail detergents, it is difficult to achieve this goal because of the presence of the large detergent micelles and the characteristic second peak in the scattering intensity. Remarkably, the facial amphiphiles described herein allow one to separate the scattering signal of the PDC from that of the empty micelles.

The target in series [5] is T3, MsbA. Put plainly: Detergent binding measurement using glycosidic colorimetric assay. Details: made in house; species or system S. typhimurium. The settings on record: MsbA fractions from chromatography.
For series [6], the target named is T4, MsbA from S. typhimurium (ST-MsbA) (Salmonella typhimurium, UniProt P63359).
T4 construct: made in house
T4 sequence (P63359 whole entry): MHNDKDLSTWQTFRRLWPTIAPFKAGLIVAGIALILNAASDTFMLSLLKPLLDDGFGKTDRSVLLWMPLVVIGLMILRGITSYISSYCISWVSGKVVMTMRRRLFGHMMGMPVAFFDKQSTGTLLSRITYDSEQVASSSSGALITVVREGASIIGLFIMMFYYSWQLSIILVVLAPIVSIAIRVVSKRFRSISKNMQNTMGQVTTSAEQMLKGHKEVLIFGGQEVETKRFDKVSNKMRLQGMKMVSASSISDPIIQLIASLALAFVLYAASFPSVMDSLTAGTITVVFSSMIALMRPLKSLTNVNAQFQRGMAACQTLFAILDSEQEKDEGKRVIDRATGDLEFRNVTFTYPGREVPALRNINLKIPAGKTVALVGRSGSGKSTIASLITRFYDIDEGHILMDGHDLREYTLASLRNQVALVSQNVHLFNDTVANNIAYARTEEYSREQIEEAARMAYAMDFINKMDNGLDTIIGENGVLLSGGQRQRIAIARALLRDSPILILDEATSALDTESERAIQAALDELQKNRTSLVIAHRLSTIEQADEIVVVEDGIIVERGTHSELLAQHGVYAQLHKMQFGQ
Put plainly: Linked enzyme ATPase assay of detergent-solubilized MsbA (activity and stability). It counts as biochemical. The procedure: The purified protein in the candidate detergent was assayed for activity by a standard linked enzyme ATPase assay to probe the protein stability.
MsbA was prepared from S. typhimurium as described previously (Reyes, C. L.; Chang, G. Acta Crystallograph Sect. F Struct. Biol. Cryst. Commun. 2005, 61, 655-8). […] The supernatant after centrifugation at 200,000 g for 45 min was subjected to Ni-affinity column for purification. The protein extraction and purity was evaluated by SDS-PAGE. MsbA was further purified by anion-exchange chromatography and desalting column for the stability evaluation which was followed by ATPase activity measurement.
ATPase activity was measured using an ATP-regenerating system described by Vogel and Steinhart (Biochemistry 1976, 15, 208-16), and modified by Urbatsch et al. (J. Biol. Chem. 1995, 270, 19383-90). Briefly, 1-2 μg of detergent solubilized MsbA was added to 100 μL of Linked Enzyme (LE) buffer at 37° C. containing 10 mM ATP, 12 mM MgCl2, 6 mM phosphoenolpyruvate (PEP), 1 mM NADH, 10 units of lactate dehydrogenase (LDH), 10 units of pyruvate kinase (PK), and 50 mM Tris-HCl (pH 7.5). ATP hydrolysis was measured as the decrease in absorbance of NADH at 340 nm using a DXT880 multiplate spectrofluorimeter (Beckman-Coulter). ATPase activity was calculated using the following equation: […], where ΔOD is the change in optical density and […].

T3 sequence (P63359 whole entry): as above

For `CCC[C@@H](C)[C@H]1CC[C@H]2[C@@H]3[C@H](OCCO[C@@H]4OC(CO)[C@@H](O[C@H]5OC(CO)[C@@H](O)[C@H](O)C5O)[C@H](O)C4O)C[C@@H]4CCCC[C@]4(C)[C@H]3C[C@H](OCCO[C@@H]3OC(CO)[C@@H](O[C@H]4OC(CO)[C@@H](O)[C@H](O)C4O)[C@H](O)C3O)[C@]12C` (stereo partly drawn) [Compound A2, 7α,12α-Di-((O-β-D-maltosyl)-2-hydroxyethoxy)-cholane], in series [1] (ANS fluorescence assay), the CMC came out at 0.01%. In addition, the “hydrodynamic radius of the micelle” value in [2] is recorded as 2.7 nm.

`CCC[C@@H](C)[C@H]1CC[C@H]2[C@@H]3[C@H](O[C@@H]4OC(CO)[C@@H](O[C@H]5OC(CO)[C@@H](O)[C@H](O)C5O)[C@H](O)C4O)C[C@@H]4CCCC[C@]4(C)[C@H]3C[C@H](O[C@@H]3OC(CO)[C@@H](O[C@H]4OC(CO)[C@@H](O)[C@H](O)C4O)[C@H](O)C3O)[C@]12C` (stereo partly drawn) [Compound A1, 7α,12α-Di-(O-β-D-maltosyl)-cholane] yielded a melting point of 188 to 190 °C. Also, in series [1], the CMC is reported as 0.1 mM. In series [1] (ANS fluorescence assay), this compound yielded a CMC of 0.01%. Further, the “hydrodynamic radius of the micelle” value in series [2] is 3.0-3.1 nm and 3.0 nm. Further, the “UV-vis spectral change of bacteriorhodopsin sample” value on bacteriorhodopsin (BR) (over the course of almost one year) is listed as “no observable UV-vis spectral change”. Moreover, the “stability of BR stored in the detergent” value on bacteriorhodopsin (BR) is reported as “remained completely stable”.

For the compound `CCCCCCCCCCCCO[C@@H]1O[C@H](CO)[C@@H](O[C@H]2O[C@H](CO)[C@@H](O)[C@H](O)[C@H]2O)[C@H](O)[C@H]1O` [DDM, dodecyl-β-D-maltoside, reference compound], on cytochrome c oxidase ba3, the “crystallizability of cytochrome c oxidase ba3” value was “not crystallizable”. In series [2], the “hydrodynamic radius of the micelle” value is given as 3.3-3.4 nm.

In the case of `CCCCCCCCO[C@@H]1O[C@H](CO)[C@@H](O)[C@H](O)[C@H]1O` [OG, octyl-β-D-glucoside, reference compound], the CMC in series [3] is given as 0.53%. At bacteriorhodopsin (BR), the “stability of BR stored in the detergent” value was “gradually denatured”.

In turn, `CCC[C@@H](C)[C@H]1CC[C@H]2[C@@H]3[C@H](OCCO[C@@H]4OC(CO)[C@@H](O)[C@H](O)C4O)C[C@@H]4C[C@H](O)CC[C@]4(C)[C@H]3C[C@H](OCCO[C@@H]3OC(CO)[C@@H](O)[C@H](O)C3O)[C@]12C` (stereo partly drawn) [Compound B2, 3α-hydroxyl-7α,12α-Di-((O-D-glucosyl)-2-hydroxyethoxy)-cholane] came in with a CMC in series [1] (ANS fluorescence assay) of 0.013%.

Take `CCC[C@@H](C)[C@H]1CC[C@H]2[C@@H]3[C@H](OCCO[C@@H]4OC(CO)[C@@H](O[C@H]5OC(CO)[C@@H](O)[C@H](O)C5O)[C@H](O)C4O)C[C@@H]4C[C@H](O)CC[C@]4(C)[C@H]3C[C@H](OCCO[C@@H]3OC(CO)[C@@H](O[C@H]4OC(CO)[C@@H](O)[C@H](O)C4O)[C@H](O)C3O)[C@]12C` (stereo partly drawn) [Compound B1, 3α-hydroxyl-7α,12α-Di-((O-β-D-maltosyl)-2-hydroxyethoxy)-cholane]: on MsbA [4], the “SAXS of MsbA prepared in the presence of the detergent” value is “Favorable results”. In series [1] (ANS fluorescence assay), this compound showed a CMC of 0.02%. Besides, the “hydrodynamic radius of the micelle” value in series [2] amounted to 2.2 nm.

Regarding `CCCCCCCCCCCO[C@@H]1O[C@H](CO)[C@@H](O[C@H]2O[C@H](CO)[C@@H](O)[C@H](O)[C@H]2O)[C@H](O)[C@H]1O` [β-UDM, Undecyl-β-D-maltoside], the detergent binding ratio on MsbA [5] stood at 219±13 mol/mol MsbA. In addition, the “loss of ATPase activity of MsbA” value in series [6] (RT, in 2 days) is “more than 70%”. Further, in series [6] (compared with β-UDM and 24 commercial detergents), the “ATPase activity of S. typhimurium MsbA, comparison of detergents” value was “highest ATPase activity among all 24 commercial detergents tested”. The “MsbA stability in the detergent (protein solution, ATPase activity)” value in series [6] (followed for more than a week at RT (about 23° C.)) is “collapsed to form visible aggregates”. For the same compound, the “initial ATPase activity” value in series [6] (freshly purified MsbA in the detergent, 37° C.) was 1.19±0.03 μmol ATP·min^−1·mg^−1.

Usually melting point stands for the temperature of the solid-liquid transition.
